Laboratory results from US20260373248A1, “DEGRADABLE PEPTOIDS” (Medici Therapeutics, Inc., priority 2023, published 2026).
Starred links: 1 amine or outer side, 2 acyl side, 3 side chain; linkers in the order of their positions; H or OH if unused. Non-standard residues stand in square brackets, D forms with d. Residues, ends and D or L forms follow the SMILES beside them. *: point of attachment. Gly(N-(3-decanoyloxypropyl)) = CCCCCCCCCC(=O)OCCCNCC(=O)O; Gly(N-(CH2)3O-octanoyl) = CCCCCCCC(=O)OCCCNCC(=O)O; N(3-imidazol-1-ylpropyl)Gly = O=C(O)CNCCCn1ccnc1; Gly(N-3-morpholinopropyl) = O=C(O)CNCCCN1CCOCC1; X5 = CCCCC(CC)C(=O)OCCCCCCN(CC(=O)[*:2])[*:1]; X4 = CCCCCCCCCCCC(=O)OCCN(CC(=O)[*:2])[*:1]; N(2-ethylhexyl)Gly = CCCCC(CC)CNCC(=O)O; X6 = CCCCCCCC(=O)OCCN(CC(=O)[*:2])[*:1]; X1 = CCCCC(CC)CSSCCN(CC(=O)[*:2])[*:1]; X7 = CCCCCCCCCCSSCCN(CC(=O)[*:2])[*:1]; Gly(N-dodecyl) = CCCCCCCCCCCCNCC(=O)O; N(CH(CH2OH)2)Gly = O=C(O)CNC(CO)CO; N(octyl)Gly = CCCCCCCCNCC(=O)O; NDecylGly = CCCCCCCCCCNCC(=O)O; For = O=C*

Key:
firefly luciferase = experiment: In vivo firefly luciferase expression after intravenous injection of fLuc mRNA delivery vehicles (IVIS imaging); parameters: species or system female Balb/c mice; details: for Total Flux: mice, 2.5 ug fLuc mRNA intravenously, 6 hours post-injection; for Total Flux (luciferase expression): fLuc mRNA, intravenous, Balb/c mice
Procedure: (§1) All animal studies were conducted under accreditation by the California State Department of Public Health and under supervision of IACUC and Veterinarian Supervision. For imaging studies, female Balb/c mice (6-8 weeks old) were obtained and acclimatized for a minimum of 3 days prior to experiments. The animals were maintained on a 12 hour light cycle in a temperature and humidity controlled room. A daily health check was performed as well as food and water check. For dosing, mice were injected with 2.5 ug fLuc mRNA-containing Nutshells intravenously in 100 μL total injection value. At 6 hours post-injection, mice were anesthetized with isoflurane, injected IP with 30 mg/mL D-luciferin at a dose of 10 μL per gram bodyweight intraperitoneally. Imaging was done 10 minutes post D-luciferin injection using an IVIS Spectrum Imaging System (Caliper Life Sciences). Immediately after in vivo imaging, mice were terminally bled by cardiac puncture and euthanized. The organs of interest were harvested, placed in black 24-well plates, and imaged. Living Image software (Perkin Elmer) was used to quantify the total photon flux in regions of interest.
Luciferase expression in these formulations was also determined as described in Example 4.

mRNA = mRNA encapsulation (modified Quant-iT RiboGreen assay); format: physicochemical; details: for mean percent encapsulation of RNA: RiboGreen, without vs with Triton X-100; for % Encapsulation: mRNA
Procedure: The mRNA concentration and the percentage of encapsulated mRNA were determined using fluorescent-based Quant-iT RiboGreen RNA Reagent Kit (Life Technologies, Waltham, MA) as described previously. To determine the mRNA concentration, PNPs was incubated with […] for 10 min to release entrapped mRNA, followed by addition of RiboGreen RNA reagent. The fluorescence intensity of mRNA-RiboGreen reagent complex (excitation at 485 nm and emission at 530 nm) was detected using a microplate reader. The ratio of fluorescence without and with Triton X-100 were used to calculate the percentage of encapsulated mRNA.
(§2) Degradable peptoids described herein were formulated as various formulations described in Table 3 according to the procedure described in Example 2. Particle size was characterized as described in Example 2, and […] encapsulation of mRNA was determined as described in Example 3.

[1] = Delivery vehicle size and polydispersity by dynamic light scattering; format: physicochemical
Procedure: Delivery vehicles were formulated by rapid microfluidic mixing using a high throughput microfluidic system. Briefly, ethanol solutions containing peptoid, DSPC, Cholesterol, DMG-PEG2000 at weight ratio of 20:1.79:7.16:1.84, were mixed with 10 mM sodium citrate buffer (pH 5.0) containing synthesized mRNA at a ratio of 1:3 by volume. Peptoid based LNPs were subsequently dialyzed against 1-2 liters of tris-sucrose buffer (TS7, pH 7.4) overnight at 4 °C. Delivery vehicle size and polydispersity (PDI) was measured by dynamic light scattering in PBS.
as §2

luciferase = experiment: Luciferase expression after local (intramuscular or subcutaneous) administration of mRNA; format: in vivo; details: mRNA 0.01 mpk, 6 hours; for IM Flux: intramuscular; for SC Flux: subcutaneous
Procedure: as §1
Aminolipidated peptoids were also effective for local administration of mRNA through subcutaneous (S.C.) or intramuscular (I.M.) routes of administration. For these examples, mRNA was administered at a dose of 0.1 mpk for intratomoral, or 0.01 mpk for subcutaneous and intramuscular administration, and the resulting bioluminescence quantified after 6 hours according to a similar procedure as described in Example 4.

[2] = DLS in PBS, peptoid:DSPC:Cholesterol:DMG-PEG2000 weight ratio 20:1.79:7.16:1.84, mRNA

Compound	Total Flux (firefly luciferase)	mean percent encapsulation of RNA (mRNA)	PDI [1, 2]	Particle Size [1, 2]	IM Flux (luciferase)	SC Flux (luciferase)	also measured
CCCCCCCC(=O)OCCN(CC(=O)N(CC(=O)N(CC(=O)N(CCOC(=O)CCCCCCC)CC(=O)N(CC(N)=O)CC(CC)CCCC)CC(CC)CCCC)CC(CC)CCCC)C(=O)CN(CC(CC)CCCC)C(=O)CNC(CO)CO (stereo not shown) [Compound 1] (H-[N(CH(CH2OH)2)Gly][N(2-ethylhexyl)Gly][X6][N(2-ethylhexyl)Gly][N(2-ethylhexyl)Gly][X6][N(2-ethylhexyl)Gly]-NH2)	7.71E+08 p/s	93.0%	0.094	79.7 nm	–	–	–
CCCCCCCCCCCC(=O)OCCN(CC(=O)N(CC(=O)N(CC(=O)N(CCOC(=O)CCCCCCCCCCC)CC(=O)N(CC(N)=O)CC(CC)CCCC)CC(CC)CCCC)CC(CC)CCCC)C(=O)CN(CC(CC)CCCC)C(=O)CNC(CO)CO (stereo not shown) [Compound 3] (H-[N(CH(CH2OH)2)Gly][N(2-ethylhexyl)Gly][X4][N(2-ethylhexyl)Gly][N(2-ethylhexyl)Gly][X4][N(2-ethylhexyl)Gly]-NH2)	6.66E+08 p/s	63.8%	0.076	74.6 nm	–	–	–
CCCCCCCCCCCCN(CC(=O)N(CC(N)=O)CC(CC)CCCC)C(=O)CN(CC(CC)CCCC)C(=O)CN(CC(CC)CCCC)C(=O)CN(CCCOC(=O)CCCCCCC)C(=O)CN(CC(CC)CCCC)C(=O)CNC(CO)CO (stereo not shown) [Compound 14] (H-[N(CH(CH2OH)2)Gly][N(2-ethylhexyl)Gly][Gly(N-(CH2)3O-octanoyl)][N(2-ethylhexyl)Gly][N(2-ethylhexyl)Gly][Gly(N-dodecyl)][N(2-ethylhexyl)Gly]-NH2)	4.76E+08 p/s	90.3%	0.090	72.1 nm	–	–	–
CCCCCCCCCCCCN(CC(=O)N(CC(N)=O)CC(CC)CCCC)C(=O)CN(CCCCCCCC)C(=O)CN(CC(CC)CCCC)C(=O)CN(CCCCCCOC(=O)C(CC)CCCC)C(=O)CN(CCCCCCCC)C(=O)CNC(CO)CO (stereo not shown) [Compound 31] (H-[N(CH(CH2OH)2)Gly][N(octyl)Gly][X5][N(2-ethylhexyl)Gly][N(octyl)Gly][Gly(N-dodecyl)][N(2-ethylhexyl)Gly]-NH2)	1.11E+09 p/s	91.4%	0.091	72.9 nm	–	–	–
CCCCCCCCCCSSCCN(CC(=O)N(CC(N)=O)CC(CC)CCCC)C(=O)CN(CC(CC)CCCC)C(=O)CN(CC(CC)CCCC)C(=O)CN(CCCCCCCCCC)C(=O)CN(CC(CC)CCCC)C(=O)CNC(CO)CO (stereo not shown) [Compound 36] (H-[N(CH(CH2OH)2)Gly][N(2-ethylhexyl)Gly][NDecylGly][N(2-ethylhexyl)Gly][N(2-ethylhexyl)Gly][X7][N(2-ethylhexyl)Gly]-NH2)	3.51E+09 p/s	–	–	–	–	–	–
CCCCCCCCCC(=O)OCCCN(CC(=O)N(CC(N)=O)CC(CC)CCCC)C(=O)CN(CCCCCCCC)C(=O)CN(CC(CC)CCCC)C(=O)CN(CCCOC(=O)CCCCCCCCC)C(=O)CN(CCCCCCCC)C(=O)CNCCCn1ccnc1 (stereo not shown) [Compound 111] (H-[N(3-imidazol-1-ylpropyl)Gly][N(octyl)Gly][Gly(N-(3-decanoyloxypropyl))][N(2-ethylhexyl)Gly][N(octyl)Gly][Gly(N-(3-decanoyloxypropyl))][N(2-ethylhexyl)Gly]-NH2)	3.16E+08 p/s	72.3%	0.148	105.5 nm	4.89E+07 p/s	6.25E+07 p/s	–
CCCCCCCCCC(=O)OCCCN(C=O)CC(=O)N(CC(=O)N(CCCOC(=O)CCCCCCCCC)CC(=O)N(CCCN1CCOCC1)CC(=O)N(CCCOC(=O)CCCCCCCCC)CC(=O)N(CC(=O)N(CCCOC(=O)CCCCCCCCC)CC(N)=O)CC(CC)CCCC)CC(CC)CCCC (stereo not shown) [Compound 121] (For-[Gly(N-(3-decanoyloxypropyl))][N(2-ethylhexyl)Gly][Gly(N-(3-decanoyloxypropyl))][Gly(N-3-morpholinopropyl)][Gly(N-(3-decanoyloxypropyl))][N(2-ethylhexyl)Gly][Gly(N-(3-decanoyloxypropyl))]-NH2)	–	72.1%	0.166	82.9 nm	4.54E+07 p/s	5.20E+07 p/s	–
CCCCCCCC(=O)OCCCN(CC(=O)N(CCc1ccccc1)CC(=O)N(CC(=O)N(CCCN1CCOCC1)CC(=O)N(CC(=O)N(CCc1ccccc1)CC(=O)N(CCCOC(=O)CCCCCCC)CC(=O)N(CC(N)=O)CC(CC)CCCC)CC(CC)CCCC)CC(CC)CCCC)C(=O)CN(C=O)CC(CC)CCCC (stereo not shown) [Compound 124]	6.20E+08 p/s	93.5%	0.118	85.2 nm	4.35E+07 p/s	4.34E+07 p/s	–
CCCCCCCCN(CC(=O)N(CCCOC(=O)CCCCCCC)CC(=O)N(CCSSCC(CC)CCCC)CC(=O)N(CCCCCCCC)CC(=O)N(CCCOC(=O)CCCCCCC)CC(=O)N(CCSSCC(CC)CCCC)CC(N)=O)C(=O)CNC(CO)CO (stereo not shown) [Compound 127] (H-[N(CH(CH2OH)2)Gly][N(octyl)Gly][Gly(N-(CH2)3O-octanoyl)][X1][N(octyl)Gly][Gly(N-(CH2)3O-octanoyl)][X1]-NH2)	6.54E+09 p/s	84.2%	0.093	84.1 nm	3.36E+08 p/s	1.92E+08 p/s	–
CCCCCCCC(=O)OCCCN(CC(=O)N(CCCOC(=O)CCCCCCC)CC(=O)N(CCSSCC(CC)CCCC)CC(=O)N(CCCOC(=O)CCCCCCC)CC(=O)N(CCCOC(=O)CCCCCCC)CC(=O)N(CCSSCC(CC)CCCC)CC(N)=O)C(=O)CNC(CO)CO (stereo not shown) [Compound 128] (H-[N(CH(CH2OH)2)Gly][Gly(N-(CH2)3O-octanoyl)][Gly(N-(CH2)3O-octanoyl)][X1][Gly(N-(CH2)3O-octanoyl)][Gly(N-(CH2)3O-octanoyl)][X1]-NH2)	4.01E+09 p/s	89.5%	0.098	62.1 nm	4.20E+08 p/s	6.68E+08 p/s	Total Flux (luciferase expression) (firefly luciferase; formulation recipe D22): 4.01E+09 p/s; Total Flux (luciferase expression) (firefly luciferase; formulation recipe R3): 5.39E+08 p/s; Total Flux (luciferase expression) (firefly luciferase; formulation recipe R4): 5.47E+08 p/s; Total Flux (luciferase expression) (firefly luciferase; formulation recipe R7): 1.09E+09 p/s; Total Flux (luciferase expression) (firefly luciferase; formulation recipe R8): 5.73E+08 p/s; % Encapsulation (mRNA; formulation recipe D22): 89.5%; % Encapsulation (mRNA; formulation recipe R3): 89.5%; % Encapsulation (mRNA; formulation recipe R4): 87.7%; % Encapsulation (mRNA; formulation recipe R7): 92.5%; % Encapsulation (mRNA; formulation recipe R8): 94.4%; Particle Size ([1]; formulation recipe D22): 62.1 nm; Particle Size ([1]; formulation recipe R3): 77.5 nm; Particle Size ([1]; formulation recipe R4): 73.6 nm; Particle Size ([1]; formulation recipe R7): 82.7 nm; Particle Size ([1]; formulation recipe R8): 78.9 nm
CCCCCCCCCC(=O)OCCCN(CC(=O)N(CCSSCC(CC)CCCC)CC(N)=O)C(=O)CN(CCCCCCCC)C(=O)CN(CCSSCC(CC)CCCC)C(=O)CN(CCCOC(=O)CCCCCCCCC)C(=O)CN(CCCCCCCC)C(=O)CNC(CO)CO (stereo not shown) [Compound 129] (H-[N(CH(CH2OH)2)Gly][N(octyl)Gly][Gly(N-(3-decanoyloxypropyl))][X1][N(octyl)Gly][Gly(N-(3-decanoyloxypropyl))][X1]-NH2)	1.06E+09 p/s	89.2%	0.101	61.2 nm	2.00E+08 p/s	3.41E+08 p/s	–
